Results taken from patent US6903052B2, “Nematicidal compositions and methods” (Divergence, Inc., priority 2002, dated 2005).

Experiments:
[1] = tested on: tomato seedlings; assay: Phytotoxicity evaluation on tomato seedlings; type: in vivo; conditions: 250 μl of 1% emulsion applied to stem-media interface of two-week seedlings
Method: Sterilized tomato seeds were germinated in magenta jars containing Gamborg's agar media. After two weeks of growth, seedlings were treated with 250 μl of 1% fatty acid methyl ester emulsion (nonanoic acid, ricinoleic acid, ricinelaidic acid, oleic acid, or a control emulsion lacking any fatty acid), applied directly to the stem-media interface. Tomato seedlings were scored at various times after application of emulsions.

[2] = tested on: C. elegans; assay: Nematicidal activity of fatty acid methyl ester emulsions, spectrum (Example 8); type: cell-based, Caenorhabditis elegans; conditions: C. elegans mixed stage
Method: (§1) Briefly, the indicated fatty acid emulsions were added and rapidly mixed by swirling. Nematode viability was scored by visual observation and motility assays 24 hours following addition of emulsions (48 hours for plant parasitic nematodes Meloidogyne and Heterodera species). The fatty acid emulsions tested were methyl esters of nonanoic (pelargonic) acid, ricinelaidic acid, ricinoleic acid, vernolic acid, linoleic acid, and oleic acid. […] Results shown are mean % values obtained from multiple independent experiments
(§2) The Caenorhabiditis elegans were mixed stage populations. Similar effects seen on several other free-living nematode species. The Parastrongyloides trichosuri (parasite of Australian bushtail possum) were dauer-like infective 3rd stage larva. Similar effects are also seen against free-living stages. The Meloidogyne incognita and Meloidogyne javanica (root knot nematode) were 2nd stage juveniles (dauer-like infective stage). The Heterodera glycines (soybean cyst nematode) were 2nd stage juveniles (dauer-like infective stage). Finally, the Pratylenchus scribneri (corn lesion nematode) were mixed stage populations.

[3] = tested on: P. trichosuri; assay: as above; type: cell-based, Parastrongyloides trichosuri; conditions: P. trichosuri infective 3rd stage larva
Method: as §1, §2

[4] = tested on: M. incognita; assay: as above; type: cell-based, Meloidogyne incognita; conditions: M. incognita 2nd stage juveniles, scored at 48 hours
Method: as §1, §2

[5] = tested on: M. javanica; assay: as above; type: cell-based, Meloidogyne javanica; conditions: M. javanica 2nd stage juveniles, scored at 48 hours
Method: as §1, §2

[6] = tested on: H. glycines; assay: as above; type: cell-based, Heterodera glycines; conditions: H. glycines 2nd stage juveniles, scored at 48 hours
Method: as §1, §2

[7] = tested on: P. scribneri; assay: as above; type: cell-based, Pratylenchus scribneri; conditions: P. scribneri mixed stage
Method: as §1, §2

[8] = tested on: free-living, animal parasitic, and plant parasitic nematodes; assay: Nematicidal activity across the spectrum of nematodes, summary statement (Example 8); type: cell-based
Method: as §1, §2

[9] = tested on: C. elegans; assay: Nematicidal activity of emulsions made with Tween-20 (replacing Igepal CO 630) against C. elegans; type: cell-based, Caenorhabditis elegans; conditions: Tween-20 emulsion
Method: Some nematodes assayed as described in Example 9 lacked tolerance to emulsions made with the surfactant Igepal CO 630. For this reason some assays were repeated with Tween-20-based emulsions.
(§3) Briefly, 1 ml 1% stock solution emulsions were prepared by mixing 10 μl of fatty acid methyl ester with 20 μl of the surfactant Tween-20 in a 1.5 ml eppendorf tube. After careful mixing of fatty acid and Tween-20, 850 μl of ddH20 was added and mixed by gentle pipetting until a homogeneous solution was obtained. Finally, 120 μl of pure isopropanol was added and mixed by gentle pipetting. This stock solution was then used to produce various fatty acid methyl ester dilution emulsions in 24-well plate assays.

[10] = tested on: B. malayi; assay: Nematicidal activity of tween-based emulsions against microfilarial nematodes; type: cell-based, Brugia malayi
Method: To each well, tween-based fatty acid emulsions were added and rapidly mixed by swirling. Nematode microfilaria viability was scored by visual observation of motility at 24 and 48 hours following addition of emulsions. The fatty acid emulsions tested were methyl esters of ricinoleic acid, vernolic acid, ricinelaidic acid, oleic acid, and control emulsions lacking fatty acids. The results of this study are presented in Table 7 as the percentage of non-motile microfilaria 24 hours after inoculation and in Table 8 as the percentage of non-motile microfilaria 48 hours after inoculation

[11] = tested on: C. elegans; assay: Rescue of C. elegans delta-12 FAT RNAi feeding phenotype by fatty acid methyl esters; type: cell-based, Caenorhabditis elegans; conditions: 3 mM added to the NGM media
Description: RNAi by feeding: C. elegans can be grown on lawns of E. coli genetically engineered to produce double stranded RNA (dsRNA) designed to inhibit delta-12 fat-2 expression. Briefly, E. coli were transformed with a genomic fragment of a portion of the C. elegans fat-2 gene sequence, specifically a fragment 651 nucleotides long, containing the entire first exon and terminating just before the conserved intron splice junction between the first exon and first intron. This construct encodes approximately the first 217 amino acids of the C. elegans delta-12 FAT gene. The 651 nucleotide genomic fragment was cloned into an E. coli expression vector between opposing T7 polymerase promoters. The clone was then transformed into a strain of E. coli that carries an IPTG-inducible T7 polymerase. As a control, E. coli was transformed with a gene encoding the Green Fluorescent Protein (GFP). Feeding RNAi was initiated from C. elegans eggs or from C. elegans […]. […] When feeding RNAi was started from C. elegans L4 larvae at 23° C. on NGM plates containing IPTG and E. coli expressing the C. elegans […] […] The sequence of the fat-2 gene is of sufficiently high complexity (i.e., unique) such that the RNAi is not likely to represent cross reactivity with other genes. […]

[12] = tested on: C. elegans; assay: Nematicidal activity of single fatty acid methyl ester emulsions against Caenorhabditis elegans (Example 4); type: cell-based
Method: Mixed stage Caenorhabditis elegans were washed off plates seeded with OP50 bacteria using M9 solution. 250 μl of the M9 solution, which contained about 50 worms, was pipetted into each well of a 24-well plate.
as §3, with “Fatty acid methyl ester emulsions were prepared following the teachings of Kim et al (U.S. Pat. No. 5,698,592). Briefly,” for “Briefly,”, “Igepal CO 630” for “Tween-20”, “Igepal CO 630,” for “Tween-20,”
To each well, fatty acid emulsions or control emulsions were added and rapidly mixed by swirling. Nematode viability was scored by visual observation and motility assays at various time points 24 hours following addition of emulsions or controls. The fatty acid emulsions tested were methyl esters of nonanoic (pelargonic) acid, ricinoleic acid, vernolic acid, linoleic acid, oleic acid, and control emulsions lacking fatty acids.

[13] = tested on: C. elegans; assay: Nematicidal activity of emulsions made with cyclodextrins (replacing isopropanol) against C. elegans; type: cell-based, Caenorhabditis elegans; conditions: igepal CO 630 / 2-Hydroxypropyl-β-Cyclodextrin emulsion
Description: In an effort to increase the bioavailability of fatty acid methyl esters in emulsions, isopropanol was replaced with one of two cyclodextrins (Methyl-β-Cyclodextrin or 2-Hydroxypropyl-β-Cyclodextrin).

Structure (SMILES)	% Worm Death (24 hr) ([2]; 0.001% solution) [%]	% Worm Death (24 hr) ([2]; 0.01% solution) [%]	% Worm Death (24 hr) ([2]; 0.1% solution) [%]	% Worm Death (24 hr) ([3]; 0.01% solution)	% Worm Death (24 hr) ([3]; 0.1% solution)	% Worm Death (24 hr) ([4]; 0.01% solution)	% Worm Death (24 hr) ([4]; 0.1% solution)	% Worm Death (48 hr) ([5]; 0.01% solution)	% Worm Death (48 hr) ([5]; 0.1% solution) [%]	% Worm Death (24 hr) ([6]; 0.001% solution) [%]	% Worm Death (24 hr) ([6]; 0.01% solution) [%]	% Worm Death (24 hr) ([6]; 0.1% solution) [%]	% Worm Death (24 hr) ([7]; 0.01% solution)	% Worm Death (24 hr) ([7]; 0.1% solution)	% Worm Death (24 hr) ([9]; 0.01% solution) [%]	% Worm Death (24 hr) ([9]; 0.1% solution) [%]	other results
CCCCCCC(O)C/C=C/CCCCCCCC(=O)OC (stereo not drawn) [Ricinelaidic, 12-hydroxy-trans-9-octadecenoic acid methyl ester]	75	100	100	100%	100%	˜99%	˜99%	100%	100	100	100	100	˜40%	˜70%	100	100	Visible effects on tomato seedlings [1]: none of the tomatoes treated with the other fatty acid methyl ester emulsions showed visible effects; % Worm Death (24 hr) ([4]; 0.001% solution): 97%; % Worm Death (48 hr) ([5]; 0.001% solution): ˜60%; Breadth of nematicidal activity (in words) [8]: favorable nematicidal activity against a wide spectrum of divergent nematode genera; Nematicidal activity (in words) ([8]; concentrations of 0.1% and 0.01%): strongly nematicidal; % Worm Death (24 hr) ([9]; 0.001% solution): 60%; percentage of non-motile microfilaria ([10]; 24 hrs post-inoculation, 0.0008%): 0%; percentage of non-motile microfilaria ([10]; 24 hrs post-inoculation, 0.0016%): 19.1%; percentage of non-motile microfilaria ([10]; 24 hrs post-inoculation, 0.003%): 100%; percentage of non-motile microfilaria ([10]; 24 hrs post-inoculation, 0.005%): 100%; percentage of non-motile microfilaria ([10]; 24 hrs post-inoculation, 0.0067%): 100%; percentage of non-motile microfilaria ([10]; 24 hrs post-inoculation, 0.008%): 100%; percentage of non-motile microfilaria ([10]; 48 hrs post-inoculation, 0.0008%): 0%; percentage of non-motile microfilaria ([10]; 48 hrs post-inoculation, 0.0016%): 49.4%; percentage of non-motile microfilaria ([10]; 48 hrs post-inoculation, 0.003%): 100%; percentage of non-motile microfilaria ([10]; 48 hrs post-inoculation, 0.005%): 100%; percentage of non-motile microfilaria ([10]; 48 hrs post-inoculation, 0.0067%): 100%; percentage of non-motile microfilaria ([10]; 48 hrs post-inoculation, 0.008%): 100%; Microfilarialcidal activity (in words) ([10]; tween-based emulsions): strong microfilarialcidal activity
CCCCC/C=C\C/C=C\CCCCCCCC(=O)OC [Linoleic Acid (C18-methyl ester), linoleic acid methyl ester, reference compound]	<10	<10	<10	˜25%	˜25%	20%	20%	0-5%	20	<20	<20	<20	<20%	<20%	<10	<10	Rescue of the delta-12 FAT RNAi feeding phenotype [11]: partial rescue; Percentage of Worm Death ([12]; 0.003% emulsion, 1 hr): 0-5%; Percentage of Worm Death ([12]; 0.003% emulsion, 6 hr): 0-5%; Percentage of Worm Death ([12]; 0.003% emulsion, 24 hr): 0-5%; Percentage of Worm Death ([12]; 0.1% emulsion, 1 hr): 0-5%; Percentage of Worm Death ([12]; 0.1% emulsion, 6 hr): 0-5%; Percentage of Worm Death ([12]; 0.1% emulsion, 24 hr): 0-5%; % Worm Death (24 hr) ([13]; 0.01% solution): <10%; % Worm Death (24 hr) ([13]; 0.1% solution): <10%
